# Measured values: PMC5382271, “The conserved protein Seb1 drives transcription termination by binding RNA polymerase II and nascent RNA” (Nature Communications, 2017)
# Tests used:
# Parameters in all cases: species or system S. pombe
# [1] = system: Seb1 SUMO-RRM388-540 F445A; test: FA, SUMO-RRM F445A binding to RNA; conditions: for effect on RNA binding, F445A: FA, SUMO-RRM388-540 F445A vs WT (Fig. 3e)
# Procedure: (§1) Recombinant WT and mutated RRM388−540 of Seb1 with an N-terminal His6-SUMO tag were expressed from modified pOPINS3C expression vector[69] in pLysS E. coli strain. For FA assays, protein eluted from NiNTA was further purified on a HiLoad 16/60 Superdex 200 prep grade column (GE Healthcare) using an ÄKTA purifier (GE Healthcare) in 50 mM Tris pH 8.0 and 200 mM NaCl, and fractions containing the Seb1-RRM388−540 concentrated to ∼5 mg ml^−1. For crystallization and SAXS, the NiNTA eluted fractions were buffer exchanged into 50 mM Tris pH 7.5, 300 mM NaCl and 500 mM NDSB-201 using a PD-10 column (GE Healthcare) and cleaved with 3C protease (Sigma-Aldrich) at room temperature overnight. His6-SUMO tag was removed using NiNTA beads and the cleaved RRM388−540 was further purified on a Superdex 75 10/100 GL column (GE Healthcare) in 20 mM HEPES pH 7.3, 150 mM NaCl and 500 mM NDSB-201. For crystallization trials, the eluted protein was concentrated to ∼8.7 mg ml^−1, for SAXS to ∼5 mg ml^−1.
# (§2) For Seb1-CID1–152, binding to 75 nM of two-repeat CTD peptides containing an N-terminal 5′-fluorescein amidite (FAM)-tag (Peptides&elephants, Potsdam, Germany) was determined in 25 mM HEPES pH 7.3, 200 mM NaCl and 1 mM EDTA. For RRM388–540, binding was determined to 40 nM FAM-AUUAGUAAAA RNA (Eurofins) in 25 mM Tris-HCl pH 8.0, 100 mM NaCl, 2 mM MgCl2, 1 mM DTT, 16.7% (v/v) glycerol, 0.1% IGEPAL, 0.1 mg ml^−1 tRNA and 2.5% (v/v) RNasin (Promega). Excitation of the ligand was performed with linearly polarized light at 485 nm and emission was measured at 520 nm in parallel and perpendicular planes to the emission plane at 25 °C using a FLUOstar-Omega microplate reader (BMG-Labtech). All measurements were performed in at least duplicates, results were plotted against the protein concentration and Kd values were determined via curve fitting as described in ref. [70].
# [2] = system: Seb1 SUMO-RRM388-540 R472E; test: FA, SUMO-RRM R472E binding to RNA; conditions: SUMO-RRM388-540 R472E vs WT (Fig. 3e)
# Procedure: as §1, with “His6-SUMO tag was removed using NiNTA beads and the cleaved RRM388−540 was further purified on a Superdex 75 10/100 GL column (GE Healthcare) in 20 mM HEPES pH 7.3, 150 mM NaCl and 500 mM NDSB-201. For crystallization trials, the eluted protein was concentrated to ∼8.7 mg ml^−1, for SAXS to ∼5 mg ml^−1.” left out
# as §2, with “All measurements were performed in at least duplicates, results were plotted against the protein concentration and Kd values were determined via curve fitting as described in ref. [70].” left out
# [3] = system: Seb1 SUMO-RRM388-540 F487A; test: FA, SUMO-RRM F487A binding to RNA; conditions: SUMO-RRM388-540 F487A vs WT (Fig. 3e)
# Procedure: as §1, with “His6-SUMO tag was removed using NiNTA beads and the cleaved RRM388−540 was further purified on a Superdex 75 10/100 GL column (GE Healthcare) in 20 mM HEPES pH 7.3, 150 mM NaCl and 500 mM NDSB-201. For crystallization trials, the eluted protein was concentrated to ∼8.7 mg ml^−1, for SAXS to ∼5 mg ml^−1.” left out
# as §2, with “All measurements were performed in at least duplicates, results were plotted against the protein concentration and Kd values were determined via curve fitting as described in ref. [70].” left out
# [4] = system: Seb1 SUMO-RRM388-540 S492A; test: FA, SUMO-RRM S492A binding to RNA; conditions: SUMO-RRM388-540 S492A vs WT (Fig. 3e)
# Procedure: as §1, with “His6-SUMO tag was removed using NiNTA beads and the cleaved RRM388−540 was further purified on a Superdex 75 10/100 GL column (GE Healthcare) in 20 mM HEPES pH 7.3, 150 mM NaCl and 500 mM NDSB-201. For crystallization trials, the eluted protein was concentrated to ∼8.7 mg ml^−1, for SAXS to ∼5 mg ml^−1.” left out
# as §2, with “All measurements were performed in at least duplicates, results were plotted against the protein concentration and Kd values were determined via curve fitting as described in ref. [70].” left out
sequence,measurement,setting,value
AUUAGUAAAA (chemistry not fully specified) [RNA: AUUAGUAAAA],"effect on RNA binding, F445A",[1]; listed as FAM-labelled 10 nt-RNA,completely abolishes RNA binding
same,"effect on RNA binding, F445A",[1]; listed as RNA,abolishes the interaction completely
same,Kd,"[1]; fluorescence anisotropy, SUMO-RRM F445A, 40 nM FAM-RNA, Tris-HCl pH 8.0, 100 mM NaCl, 2 mM MgCl2, 25 °C, three technical replicates",> 1 mM
same,"effect on RNA binding, R472E",[2],completely abolishes RNA binding
same,"effect on affinity to RNA, F487A",[3],severely reduces the affinity to RNA
same,"effect on RNA binding, S492A",[4],only a mild effect on binding
